Test results taken from US8981112B2, “Inhibitors of β-secretase” (Boehringer Ingelheim International GmbH, priority 2012, dated 2015).

Key:
[1] = tested on: production of Abeta1-x peptides in H4 neuroglioma cell line stably expressing human APP; assay: H4-APPwt Cell-Based Assay (Assay 2), Abeta1-x production; settings: H4 neuroglioma cells expressing human APP, Abeta1-x; read-out: H4-APPwt cell IC50 nM (assay 2)
Protocol: H4-APPwt Cell-Based Assay (Assay 2)
Cellular potency of the compounds of the invention was assessed in an assay monitoring production of Abeta1-x peptides in the H4 neuroglioma cell line (ATCC, Cat. #HTB-148) stably expressing human APP, using an immunoassay such as AlphaLISA (PerkinElmer, Cat.# AL288). Tested compounds were dissolved in DMSO and pre-diluted in the culture medium (DMEM containing 10% FBS and 1% penicillin/streptomycin) to achieve twice the final concentration of the compounds in the assay. Equal volumes of the 2× solutions of the tested compounds and cell suspension were added to a 96-well culture plate, so that each well contained ˜10,000 cells in a final volume of 200 μl. Final concentration of DMSO in the assay was 0.2%. The plates were incubated for 5 hrs at 37° C., 5% CO2 to allow cells to attach to the bottom of the wells in the presence of the tested compounds. Then the media was removed and replaced with fresh media containing tested compounds at the same final concentration. The plates were incubated for 18 hrs at 37° C., 5% CO2. Concentrations of Ab1-x were determined using AlphaLISA immunoassay (PerkinElmer, Cat.# AL288) following manufacturer's protocol. Concentrations of Abeta1-x in the wells containing either DMSO or 10 μM beta-secretase inhibitor (BACE inhibitor IV, EMD Bioscience, Cat. #565788) were used as uninhibited and background controls, correspondingly, for calculating percent inhibition values for each well with the tested compounds.

[2] = tested on: brain amyloid peptides Aβ1-x; assay: Rat Brain Aβ Lowering Assay (Assay 5); format: in vivo; settings: 3 hrs after dosing
Protocol: Rat Brain Aβ Lowering Assay (Assay 5)
The animals were sacrificed 3 hrs after dosing, and brains were excised, dissected into cerebellum and left and right cerebra and flash-frozen in liquid nitrogen.
The cerebrum was homogenized (5 volumes per weight) in 20 mM Tris-HCL, pH 8.5, 0.2% Triton-X100 supplemented with protease inhibitors (complete, Roche Applied Science) at 4° C. using a glass Dounce homogenizer. The homogenate was centrifuged at 120,000×g for 60 min at 4° C., and the supernatant was collected and analyzed for Ab1-x using immunoassay with chemiluminescent detection (Meso-Scale Discovery, Rockville, Md. (MSD)).
Streptavidin 96-well plates (MSD) were pre-blocked with 5% Blocker A solution (MSD) for 1 hr at rt on an orbital shaker and washed 4 times with phosphate buffered saline (PBS). The wells were pre-coated with 20 ng/well of biotinylated antibody SIG-39155 (Clone M3.2, specific for amino acids 10-15 of the rodent Aβ) for 1 hr at rt and washed 4 times with PBS. For Aβ1-x analysis, 25 μl of either the cleared brain lysates or Aβ1-40 standards (8-500 pg/ml, with 2× increment) were incubated for 1 hr at rt with constant shaking. The wells were washed 4 times with PBS, and 25 μl of the detection antibody (Sulfo-TAG labeled anti-Aβ40 antibody supplied by MSD) was added and incubated for 1 hr at rt. After 4 washes with PBS, 150 μl of the chemiluminescence detection reagent (Read Buffer T, MSD) was added, and the plate was read on an MSD Sector Imager 6000 instrument. The calibration curve was fit into a non-linear four-parameter regression model, and the Aβ1-x concentrations were calculated for each well containing the cleared brain lysates. The percent of Aβ lowering was calculated based on the difference with the average Aβ concentration obtained for the brains from the animals treated with vehicle alone.

[3] = In Vitro Phospholipidosis Assay (Assay 4), Nile red staining; format: cell-based; settings: human, first effect concentration, U937 cells, read-out: Phospholipidosis FEC IC50 μM (assay 4)
Protocol: In Vitro Phospholipidosis Assay (Assay 4)
The phospholipidogenic potential of test compounds was assayed using the human hematopoetic U937 cell line. The test principle was to analyze the phospholipid content by staining the cells with the fluorescent dye Nile red.
U937 cells were seeded into cell culture plates at 0.5×10^6 cells/mL in RPMI medium containing 10% FBS, 1% DMSO, and 0.005% gentamicin. The cells were then cultivated with or without different concentrations of test compounds for 48 h under standard culture conditions.
For harvesting the cells were centrifuged at 130×g for 4 min and washed once with PBS. Then 2×0.5 mL cell suspension was prepared for non-fixed cell measurement (0.5 mL for propidium iodide (PI) viability measurement and 0.5 mL for Nile red measurement).
The remaining cells were fixed with 3.7% formaldehyde for 30 min. After a further centrifugation step cells were resuspended with 1.3 mL Nile red working solution (1 μg/mL) and incubated for 5 min at rt. The cell suspension was then washed twice with 3 mL PBS and centrifuged with 130×g for 4 min. The supernatant was discarded and the cells were resuspended with 0.5 mL PBS and kept for flow cytometry measurement. For Nile red staining of the 0.5 mL non-fixed cell samples, 50 μL of a ready to use Nile red solution (10 μg/mL) were added per sample. Samples were kept on ice for 5 min. Thereafter, they were washed once with 4 mL PBS (4° C., 250×g for 8 min) and finally resuspended in 400 μL PBS and kept for flow cytometry measurement.
For the viability measurement, 12.5 μL of the ready to use PI solution (10 μg/mL) were added to the 0.5 mL non-fixed cell suspension. After 15 min of incubation on ice, the samples were measured by flow cytometry using a Coulter Epics XL/MCL flow cytometer.
The viability of the cells of each sample was determined by flow cytometry measurement of the PI content at channel 2 (568-590 nm). Cut-off gates for the fluorescence-dependent differentiation between live and dead cells were defined based on the analysis of cell culture medium control samples.
Only samples with a cell viability of >=90% relative to control samples were analyzed for phospholipidosis. For that, each Nile red sample (non-fixed and fixed samples) was measured by flow cytometry at channel 1 (504-541 nm) and channel 4 (660-680 nm).
For each channel, relative Nile red fluorescence intensity of a test sample was calculated compared to control samples and expressed as percentage of control fluorescence intensity. The assessment of the phospholipidogenic potential and the first effect concentration (FEC) of a test compound was done manually based on the fluorescence intensities at both wavelengths for the fixed cells as well as for the non-fixed cells.

hERG = hERG (Homo sapiens (Human), UniProt Q12809); assay: hERG-Channel Assay (Assay 3), whole-cell patch clamp; format: cell-based; settings: human, HEK293 cells stably transfected with hERG, pH 7.4; 10 μM, HEK293 cells transfected with hERG
Source text: hERG-Channel Assay (Assay 3)
HEK (human embryonic kidney) 293 cells were stably transfected with hERG cDNA.
Cells were superfused with a bath solution containing (mM): NaCl (137), KCl (4.0), MgCl2 (1.0), CaCl2 (1.8), Glucose (10), HEPES (10), pH 7.4 with NaOH. Patch pipettes were made from borosilicate glass tubing using a horizontal puller and filled with pipette solution containing (mM): K-aspartate (130), MgCl2 (5.0), EGTA (5.0), K2ATP (4.0), HEPES (10.0), pH 7.2 with KOH. Resistance of the microelectrodes was in the range between 2 and 5 MΩ.
Membrane currents were recorded using an EPC-10 patch clamp amplifier and PatchMaster software. hERG-mediated membrane currents were recorded at 35° C., using the whole-cell configuration of the patch-clamp technique. Transfected HEK293 cells were clamped at a holding potential of −60 mV and hERG-mediated inactivating tail currents were elicited using a pulse pattern with fixed amplitudes (activation/inactivation: 40 mV for 2000 ms; recovery: −120 mV for 2 ms; ramp to 40 mV in 2 ms; inactivating tail current: 40 mV for 50 ms) repeated at 15 s intervals. During each inter-pulse interval 4 pulses scaled down by a factor of 0.2 were recorded for a P/n leak subtraction procedure. Rs compensation was employed up to a level that safely allowed recording devoid of ringing.
The different concentrations of the test compound were applied sequentially on each of the different cells investigated. A steady state level of baseline current was measured for at least 6 sweeps prior to the application of the first test compound concentration.
The test compound was dissolved in DMSO to yield a master stock solution which was diluted further in DMSO to stock solutions needed for the lower concentrations. Final dilutions in extracellular buffer were prepared freshly from these stocks by a 1:1000 dilution step each before starting the experiments.
Peak current amplitudes were measured 3 ms after the ramp to +40 mV. For baseline and each concentration the peak currents of the three last sweeps before application of the next concentration were averaged. Residual currents (I/I0) were calculated for each cell as the fraction of actual average peak current and average baseline peak current. Results are presented as percent (%) inhibition (1−I/I0)*100% at 10 μM.

hERG, sequence (Q12809 whole entry): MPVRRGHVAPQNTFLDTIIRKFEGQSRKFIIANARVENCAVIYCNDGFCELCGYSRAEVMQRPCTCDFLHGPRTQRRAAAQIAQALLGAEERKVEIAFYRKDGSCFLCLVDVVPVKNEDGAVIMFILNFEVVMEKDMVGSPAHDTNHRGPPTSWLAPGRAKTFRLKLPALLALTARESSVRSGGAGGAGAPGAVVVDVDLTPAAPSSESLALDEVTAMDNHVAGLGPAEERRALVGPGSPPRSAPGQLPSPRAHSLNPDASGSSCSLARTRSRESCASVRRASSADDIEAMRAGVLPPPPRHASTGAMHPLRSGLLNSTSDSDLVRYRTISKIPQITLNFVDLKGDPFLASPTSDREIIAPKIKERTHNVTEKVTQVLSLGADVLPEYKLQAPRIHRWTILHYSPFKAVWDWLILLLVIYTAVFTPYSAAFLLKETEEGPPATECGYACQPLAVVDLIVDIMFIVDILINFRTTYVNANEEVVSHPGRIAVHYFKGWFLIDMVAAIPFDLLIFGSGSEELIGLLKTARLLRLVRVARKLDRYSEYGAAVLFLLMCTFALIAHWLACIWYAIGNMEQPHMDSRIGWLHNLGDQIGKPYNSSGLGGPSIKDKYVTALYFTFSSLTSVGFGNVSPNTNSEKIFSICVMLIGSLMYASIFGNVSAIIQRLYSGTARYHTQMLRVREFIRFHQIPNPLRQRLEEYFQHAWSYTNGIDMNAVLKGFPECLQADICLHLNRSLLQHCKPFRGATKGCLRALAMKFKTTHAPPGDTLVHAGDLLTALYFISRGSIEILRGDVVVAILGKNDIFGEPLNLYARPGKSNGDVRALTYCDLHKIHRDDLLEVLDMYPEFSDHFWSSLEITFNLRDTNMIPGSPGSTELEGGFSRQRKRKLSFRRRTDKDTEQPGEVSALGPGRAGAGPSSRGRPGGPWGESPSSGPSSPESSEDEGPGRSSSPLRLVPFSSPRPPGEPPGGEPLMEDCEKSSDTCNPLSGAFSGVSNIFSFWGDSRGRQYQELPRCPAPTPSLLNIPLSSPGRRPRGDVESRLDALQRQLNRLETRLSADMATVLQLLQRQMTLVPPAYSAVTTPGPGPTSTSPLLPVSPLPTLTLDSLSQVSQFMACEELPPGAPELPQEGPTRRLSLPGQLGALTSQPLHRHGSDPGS

Row | IC50 [1] [nM] | SMILES | % Aβ Reduction ([2]; single oral dose 50 mg/kg) [%] | IC50 at 48 h [3] [µM] | inhibition at 10 µM (hERG) [%] | % Aβ Reduction ([2]; single oral dose 25 mg/kg) [%] | % Aβ Reduction ([2]; single oral dose 12.5 mg/kg) [%]
1 | 1.24 | CO[C@H]1CC[C@@]2(Cc3ccc(C#N)cc3[C@]23N=C(N)N(Cc2ncccn2)C3=O)C[C@@H]1C [Example 6] | 60 | 200 | 35 |  | 
2 | 0.28 | CO[C@H]1[C@H](C)C[C@@]2(Cc3ccc(C#N)cc3[C@]23N=C(N)N(CC2(C)OCCO2)C3=O)C[C@@H]1C [Example 20] |  | > 400 | 8 | 73 | 
3 | 0.5 | CC[C@@H]1C[C@]2(CC[C@H]1OC)Cc1ccc(C#N)cc1[C@]21N=C(N)N(C[C@H]2COCCO2)C1=O [Example 28] |  | 400 | 9 |  | 30
4 | 0.3 | CO[C@H]1[C@H](C)C[C@@]2(Cc3ccc(F)cc3[C@]23N=C(N)N(CC2(C)OCCO2)C3=O)C[C@@H]1C [Example 29] |  | 200 | 7 | 78 | 
